Measurements reported in US20230150960A1, “COMPOSITIONS AND METHODS OF USING CYANINE DYES TO TARGET CANCER AND MITOCHONDRIA” (Thomas Jefferson University, priority 2020, published 2023).

Legend:
Format in all cases: physicochemical
[1] = Solubility of BSA-containing formulations (post vortexing, 30 min and overnight at 18° C.); conditions: BSA-containing formulation, aqueous with cosolvent or surfactant or cyclodextrin, compound 2 mg/mL; for solubility at 30 min / solubility: 18 °C; for solubility at 30 min: after 30 minutes incubation at 18° C.; for solubility: overnight incubation at 18° C.; for solubility at 30 s: post vortexing
Experimental: Vortexing was conducted using a Denville Vortexer 59 (Denville Scientific Inc.), at maximum speed for 30 seconds. As used herein, the term overnight refers to a period lasting at least about 12-24 hours.

[2] = Solubility of sodium deoxycholate-containing formulations (post vortexing, 30 min and overnight at 18° C.); conditions: compound 2 mg/mL; for solubility at 30 s: post vortexing
Experimental: Tables 5A, 5B, and 5C describe solubility experiments conducted with the indicated compounds under the listed conditions. Vortexing was conducted using a Denville Vortexer 59 (Denville Scientific Inc.), at maximum speed for 30 seconds. As used herein, the term overnight refers to a period lasting at least about 12-24 hours.

[3] = Solubility of glycerol-containing formulations (post vortexing, 30 min and overnight at 18° C.); conditions: glycerol-containing formulation, compound 2 mg/mL; for solubility at 30 min / solubility: 18 °C; for solubility at 30 min: after 30 minutes incubation at 18° C.; for solubility: overnight incubation at 18° C.; for solubility at 30 s: post vortexing
Experimental: Tables 3A, 3B, and 3C describe solubility experiments conducted with the indicated compounds under the listed conditions. Vortexing was conducted using a Denville Vortexer 59 (Denville Scientific Inc.), at maximum speed for 30 seconds. As used herein, the term overnight refers to a period lasting at least about 12-24 hours.

## CCN1/C(=C/C=C/c2oc3ccccc3[n+]2CC)Oc2ccccc21 [JAC-R1, 3′,3′-Diethyloxacarbocyanine iodide]
[1]; BSA 40 mg/mL, read-out: Solubility of BSA-containing formulations after 30 min incubation at 18° C., 40 mg/mL
  solubility at 30 min: < 2000 µg/mL
[1]; BSA 40 mg/mL, read-out: Solubility of BSA-containing formulations after overnight incubation at 18° C., 40 mg/mL
  solubility: < 2000 µg/mL
[1]; BSA 60 mg/mL, read-out: Solubility of BSA-containing formulations after 30 min incubation at 18° C., 60 mg/mL
  solubility at 30 min: < 2000 µg/mL
[1]; BSA 60 mg/mL, read-out: Solubility of BSA-containing formulations after overnight incubation at 18° C., 60 mg/mL
  solubility: < 2000 µg/mL
[1]; BSA 80 mg/mL, read-out: Solubility of BSA-containing formulations after 30 min incubation at 18° C., 80 mg/mL
  solubility at 30 min: < 2000 µg/mL
[1]; BSA 80 mg/mL, read-out: Solubility of BSA-containing formulations after overnight incubation at 18° C., 80 mg/mL
  solubility: < 2000 µg/mL
[1]; BSA 100 mg/mL, read-out: Solubility of BSA-containing formulations after 30 min incubation at 18° C., 100 mg/mL
  solubility at 30 min: < 2000 µg/mL
[1]; BSA 100 mg/mL, read-out: Solubility of BSA-containing formulations after overnight incubation at 18° C., 100 mg/mL
  solubility: < 2000 µg/mL
[1]; BSA 40 mg/mL, read-out: Solubility of BSA-containing formulations post vortexing, 40 mg/mL
  solubility at 30 s: < 2000 µg/mL
[1]; BSA 60 mg/mL, read-out: Solubility of BSA-containing formulations post vortexing, 60 mg/mL
  solubility at 30 s: < 2000 µg/mL
[1]; BSA 80 mg/mL, read-out: Solubility of BSA-containing formulations post vortexing, 80 mg/mL
  solubility at 30 s: < 2000 µg/mL
[1]; BSA 100 mg/mL, read-out: Solubility of BSA-containing formulations post vortexing, 100 mg/mL
  solubility at 30 s: < 2000 µg/mL
[2]; sodium deoxycholate 50 mg/mL, after 30 minutes incubation at 18° C.
  Solubility of sodium deoxycholate-containing formulations after 30 min incubation at 18° C., 50 mg/mL: MFG
[2]; sodium deoxycholate 100 mg/mL, after 30 minutes incubation at 18° C.
  Solubility of sodium deoxycholate-containing formulations after 30 min incubation at 18° C., 100 mg/mL: MFG
[2]; sodium deoxycholate-containing formulation, aqueous with cosolvent or surfactant or cyclodextrin, sodium deoxycholate 12.5 mg/mL, read-out: Solubility of sodium deoxycholate-containing formulations post vortexing, 12.5 mg/mL
  solubility at 30 s: < 2000 µg/mL
[2]; sodium deoxycholate-containing formulation, aqueous with cosolvent or surfactant or cyclodextrin, sodium deoxycholate 25 mg/mL, read-out: Solubility of sodium deoxycholate-containing formulations post vortexing, 25 mg/mL
  solubility at 30 s: < 2000 µg/mL
[2]; sodium deoxycholate-containing formulation, aqueous with cosolvent or surfactant or cyclodextrin, sodium deoxycholate 50 mg/mL, read-out: Solubility of sodium deoxycholate-containing formulations post vortexing, 50 mg/mL
  solubility at 30 s: < 2000 µg/mL
[2]; sodium deoxycholate-containing formulation, aqueous with cosolvent or surfactant or cyclodextrin, sodium deoxycholate 100 mg/mL, read-out: Solubility of sodium deoxycholate-containing formulations post vortexing, 100 mg/mL
  solubility at 30 s: < 2000 µg/mL
[2]; sodium deoxycholate-containing formulation, aqueous with cosolvent or surfactant or cyclodextrin, sodium deoxycholate 12.5 mg/mL, after 30 minutes incubation at 18° C.
  solubility at 30 min: < 2000 µg/mL
[2]; sodium deoxycholate-containing formulation, aqueous with cosolvent or surfactant or cyclodextrin, sodium deoxycholate 12.5 mg/mL, overnight incubation at 18° C., read-out: Solubility of sodium deoxycholate-containing formulations after overnight incubation at 18° C., 12.5 mg/mL
  solubility: > 2000 µg/mL
[3]; aqueous with cosolvent or surfactant or cyclodextrin, 10% glycerol, read-out: Solubility of glycerol-containing formulations after 30 min incubation at 18° C., 10%
  solubility at 30 min: < 2000 µg/mL
[3]; aqueous with cosolvent or surfactant or cyclodextrin, 10% glycerol, read-out: Solubility of glycerol-containing formulations after overnight incubation at 18° C., 10%
  solubility: < 2000 µg/mL
[3]; aqueous with cosolvent or surfactant or cyclodextrin, 20% glycerol, read-out: Solubility of glycerol-containing formulations after 30 min incubation at 18° C., 20%
  solubility at 30 min: < 2000 µg/mL
[3]; aqueous with cosolvent or surfactant or cyclodextrin, 20% glycerol, read-out: Solubility of glycerol-containing formulations after overnight incubation at 18° C., 20%
  solubility: < 2000 µg/mL
[3]; aqueous with cosolvent or surfactant or cyclodextrin, 30% glycerol, read-out: Solubility of glycerol-containing formulations after 30 min incubation at 18° C., 30%
  solubility at 30 min: < 2000 µg/mL
[3]; aqueous with cosolvent or surfactant or cyclodextrin, 30% glycerol, read-out: Solubility of glycerol-containing formulations after overnight incubation at 18° C., 30%
  solubility: < 2000 µg/mL
[3]; aqueous with cosolvent or surfactant or cyclodextrin, 40% glycerol, read-out: Solubility of glycerol-containing formulations after 30 min incubation at 18° C., 40%
  solubility at 30 min: < 2000 µg/mL
[3]; aqueous with cosolvent or surfactant or cyclodextrin, 40% glycerol, read-out: Solubility of glycerol-containing formulations after overnight incubation at 18° C., 40%
  solubility: < 2000 µg/mL
[3]; aqueous with cosolvent or surfactant or cyclodextrin, 50% glycerol, read-out: Solubility of glycerol-containing formulations after 30 min incubation at 18° C., 50%
  solubility at 30 min: < 2000 µg/mL
[3]; aqueous with cosolvent or surfactant or cyclodextrin, 50% glycerol, read-out: Solubility of glycerol-containing formulations after overnight incubation at 18° C., 50%
  solubility: < 2000 µg/mL
[3]; 0% glycerol, read-out: Solubility of glycerol-containing formulations after 30 min incubation at 18° C., 0%
  solubility at 30 min: < 2000 µg/mL
[3]; 0% glycerol, read-out: Solubility of glycerol-containing formulations after overnight incubation at 18° C., 0%
  solubility: < 2000 µg/mL
[3]; aqueous with cosolvent or surfactant or cyclodextrin, 10% glycerol, read-out: Solubility of glycerol-containing formulations post vortexing, 10%
  solubility at 30 s: < 2000 µg/mL
[3]; aqueous with cosolvent or surfactant or cyclodextrin, 20% glycerol, read-out: Solubility of glycerol-containing formulations post vortexing, 20%
  solubility at 30 s: < 2000 µg/mL
[3]; aqueous with cosolvent or surfactant or cyclodextrin, 30% glycerol, read-out: Solubility of glycerol-containing formulations post vortexing, 30%
  solubility at 30 s: < 2000 µg/mL
[3]; aqueous with cosolvent or surfactant or cyclodextrin, 40% glycerol, read-out: Solubility of glycerol-containing formulations post vortexing, 40%
  solubility at 30 s: < 2000 µg/mL
[3]; aqueous with cosolvent or surfactant or cyclodextrin, 50% glycerol, read-out: Solubility of glycerol-containing formulations post vortexing, 50%
  solubility at 30 s: < 2000 µg/mL
[3]; 0% glycerol, read-out: Solubility of glycerol-containing formulations post vortexing, 0%
  solubility at 30 s: < 2000 µg/mL
